We go through 15 molecules from ChEMBL document CHEMBL1201862, “PubChem BioAssay data set” (2004).

Test systems include RXF 631; KM-20L2; DMS-273; HOP-18; DLD-1; SNB-78; LXFL 529; XF498; BT-549.
Holding throughout (test): inhibition of tumour cell growth, NCI panel, 48 h

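Five compound concentrations were applied to cells in 96-well plates for 48 hours; endpoints were derived by simple linear interpolation of the resulting dose-response curve. GI50: concentration for 50% inhibition of growth.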 Activity calls are given as the source filed them. Cut-off read from the data, not from the text of the source: active = GI50 up to about 1.1 µM and inactive = higher.

Consider `Cc1nc(C(N)=S)sc1C(=O)/C=C/c1c(O)ccc2ccccc12`, for which the GI50 in the experiment with RXF 631 was > 100 µM (inactive); with KM-20L2, > 100 µM (inactive); with DMS-273, > 100 µM (inactive); in the experiment with HOP-18, > 100 µM (inactive); in the experiment with DLD-1 it was 72.4 µM (inactive); with SNB-78, > 100 µM (inactive). Moreover, the GI50 was 30 µM (inactive) with LXFL 529 and > 100 µM (inactive) with XF498.

As for `C/C(CC(=O)CCC(=O)Nc1cccc(C(F)(F)F)c1)=N\NC(=O)NN`, the GI50 in the experiment on RXF 631, with KM-20L2, in the experiment with DMS-273, in the experiment with HOP-18, in the experiment on DLD-1 and in the experiment on SNB-78 was > 100 µM (inactive) throughout. The GI50 in the experiment on LXFL 529 and in the experiment on XF498 was > 100 µM (inactive) in each case.

As to `CCOc1ccc(NC(=O)C(=O)CC(=O)C2=C(C)Nc3ccccc3S2)cc1`, the GI50 with RXF 631, in the experiment with KM-20L2, with HOP-18, in the experiment with DLD-1 and in the experiment with XF498 was > 50 µM (inactive) in each case.

Consider `CC[As](CC)SCC1OC(OC(C)=O)C(OC(C)=O)C(OC(C)=O)C1OC(C)=O` (stereo unspecified), for which the GI50 with RXF 631 is 2.67 µM (inactive); in the experiment on KM-20L2, 18.7 µM (inactive); in the experiment with DMS-273, 15.6 µM (inactive); in the experiment on HOP-18 it was 16.1 µM (inactive); in the experiment with DLD-1, 16.1 µM (inactive); in the experiment with SNB-78, 10.4 µM (inactive). For the same molecule, the GI50 is 1.92 µM (inactive) in the experiment with LXFL 529 and 17.7 µM (inactive) in the experiment with XF498.

As to `C#CC[N+](C)(CC#C)CC#C`, the GI50 with RXF 631, in the experiment with KM-20L2, in the experiment with DMS-273, in the experiment on DLD-1, in the experiment on SNB-78 and with LXFL 529 was > 100 µM (inactive) throughout. For the same molecule, the GI50 in the experiment with XF498 is > 100 µM (inactive).

For `CN(Cc1ccccc1)c1nc(=[N+](C)C)ss1`, the GI50 with RXF 631 was 67.5 µM (inactive); with KM-20L2 it was > 100 µM (inactive); in the experiment on DMS-273, 60.7 µM (inactive); in the experiment with HOP-18, > 100 µM (inactive); in the experiment with DLD-1, > 100 µM (inactive); in the experiment on SNB-78, > 100 µM (inactive). In addition, the GI50 in the experiment on LXFL 529 is 71.6 µM (inactive); in the experiment with XF498, > 100 µM (inactive).

With `CCCCCCCCCCCCCCCCCCOCC(C[N+]1(C)CCC(O)CC1)OCC` (stereo unspecified), the GI50 in the experiment on RXF 631 is 4.93 µM (inactive); with DMS-273, 2.28 µM (inactive); in the experiment on DLD-1, 11.8 µM (inactive); in the experiment on SNB-78, 3.18 µM (inactive); in the experiment on LXFL 529, 2.84 µM (inactive); with XF498, 13.3 µM (inactive).

`NC1=NN(c2ccccc2)C(=O)C1C(=O)C(=O)Nc1cccc(C(F)(F)F)c1` (stereo unspecified): the GI50 with RXF 631 is > 100 µM (inactive); in the experiment on KM-20L2, > 100 µM (inactive); in the experiment with DMS-273, > 100 µM (inactive); in the experiment with HOP-18, 67.9 µM (inactive); in the experiment on DLD-1 it was > 100 µM (inactive); in the experiment on SNB-78, > 100 µM (inactive). Besides, the GI50 with LXFL 529 is 67.1 µM (inactive); in the experiment with XF498, > 100 µM (inactive).

Take `O=C1CCCC/C1=C/C=C/c1ccccc1`: the GI50 is 69.2 µM (inactive) with RXF 631; 68.1 µM (inactive) with KM-20L2; > 100 µM (inactive) in the experiment with HOP-18; 46.9 µM (inactive) in the experiment with DLD-1; 64.9 µM (inactive) in the experiment on LXFL 529; > 100 µM (inactive) in the experiment with XF498.

For `CCOC(=O)c1ccc(/N=C\c2ccc(N(CCC#N)CCC#N)cc2)cc1`, the GI50 with RXF 631 was > 100 µM (inactive); in the experiment with KM-20L2 it was 27.7 µM (inactive); in the experiment with DMS-273, 35.9 µM (inactive); in the experiment with DLD-1, 41.7 µM (inactive); in the experiment on SNB-78, > 100 µM (inactive); in the experiment with LXFL 529 it was 20.8 µM (inactive). The GI50 in the experiment with XF498 was > 100 µM (inactive).

On to `CCCC(=O)N[C@H]1CCc2cc(OC)c(OC)c(OC)c2-c2ccc(SC)c(=O)cc21`, for which the GI50 in the experiment on BT-549 was < 0.01 µM (active); in the experiment with RXF 631 it was < 0.01 µM (active); with KM-20L2, < 0.01 µM (active); with DMS-273, < 0.01 µM (active); with HOP-18, > 35.8 µM (inactive); in the experiment on DLD-1 it was < 0.01 µM (active). The GI50 in the experiment with SNB-78 and in the experiment with LXFL 529 was < 0.01 µM (active) throughout.

Take `O=S(=O)(/C=C/CS(=O)(=O)c1ccccc1)c1ccccc1`: the GI50 is 24.7 µM (inactive) in the experiment on RXF 631; 29.2 µM (inactive) with KM-20L2; 29.8 µM (inactive) in the experiment on DMS-273; > 100 µM (inactive) in the experiment with HOP-18; 23.6 µM (inactive) in the experiment with DLD-1; 26.7 µM (inactive) in the experiment with SNB-78. Besides, the GI50 in the experiment on LXFL 529 was 29.1 µM (inactive); in the experiment with XF498 it was 20.7 µM (inactive).

Consider `Cc1cc(NS(=O)(=O)c2ccc(Nc3c4ccccc4nc4c(C(=O)NCCN(C)C)ccc(Cl)c34)cc2)no1`, for which the GI50 in the experiment with RXF 631 is 0.851 µM (active); in the experiment with KM-20L2, 11 µM (inactive); in the experiment on DLD-1, 3.94 µM (inactive); in the experiment on SNB-78, 10.7 µM (inactive); with LXFL 529 it was 4.67 µM (inactive); in the experiment with XF498, 13.8 µM (inactive).

For `CCCCCCCCCCNCCSSCc1ccc(Cl)cc1`, the GI50 in the experiment on RXF 631 was 1.69 µM (inactive); in the experiment on KM-20L2, 1.36 µM (inactive); with DMS-273, 1.4 µM (inactive); in the experiment on HOP-18 it was > 10 µM (inactive); in the experiment on DLD-1, 2.07 µM (inactive); in the experiment on LXFL 529 it was 1.56 µM (inactive). Moreover, the GI50 in the experiment with XF498 is 2.8 µM (inactive).

Consider `CC1=C(/C(C)=N/NC(=O)c2ccccc2O)C(C)C(/C(C)=N/NC(=O)c2ccccc2O)=C(C)N1`, for which the GI50 in the experiment on RXF 631 is 37.1 µM (inactive); with KM-20L2 it was 33.3 µM (inactive); in the experiment with DLD-1, 27.9 µM (inactive); with SNB-78 it was 40.6 µM (inactive); with LXFL 529, 23.3 µM (inactive); in the experiment on XF498 it was 15.1 µM (inactive).
